Reference: patent US20240216410A1, “METHODS AND COMPOSITIONS FOR TREATING CANCER THERAPY-INDUCED NEUTROPENIC FEVER AND/OR GVHD” (BOARD OF REGENTS, THE UNIVERSITY OF TEXAS SYSTEM, priority 2021, published 2024)

Columns and labels:
colonic mucus layer = assay: Murine GVHD model: colonic mucus layer thickness (PAS staining); assay type: in vivo, mice; conditions: day 20; xylose days 13 to 20 vs GVHD mice receiving meropenem alone
Experimental: Next, assessed was the impact of meropenem treatment on the dense colonic mucus layer of mice with GVHD.
Allo-HSCT recipient mice were treated with meropenem as in FIG. 15A and with xylose from days 13 to 20 (FIG. 18F). […] Importantly, in vitro, growth of mouse and human-derived BT in carbohydrate-poor media was augmented by xylose (FIG. 23B).
Xylose administration. D-(+)-xylose (X3877, SIGMA-ALDRICH®) was dissolved in phosphate buffer pH 8.0 with meropenem or in water without meropenem and given at a concentration of 0.5% from days 13 to 20 after allo-HSCT.
Histological and immunohistochemistry analysis. […] Pathology scores were quantified by a blinded pathologist. […] Sections were imaged using an APERIO® AT2.

intestinal microbiota = assay: Murine GVHD model: fecal microbiome composition (16S rRNA sequencing) and bacterial density (qPCR); assay type: in vivo, mice; conditions: day 20; meropenem-treated mice with or without oral xylose 0.5% days 13 to 20
Experimental: Effects of meropenem treatment on the composition of the intestinal microbiota of allo-HSCT mice were also examined (FIG. 15F).
Sequencing of 16S rRNA gene amplicons. Fecal samples from patients and mice were weighed before DNA isolation. In brief, genomic DNA was isolated using the QIAAMP® DNA mini kit (51306, QIAGEN®) according to the manufacturer's protocol that was modified to include an intensive bead-beating lysis step. The V4 region of 16S rRNA gene was amplified by PCR from 100 ng of each of extracted and purified genomic DNA using 515 forward and 806 reverse primer pairs (59). The quality and quantity of the barcoded amplicons were assessed on an Agilent 4200 TapeStation system (Agilent) and QUBIT™ Fluorometer (THERMO FISHER […]™), and libraries were prepared after pooling at equimolar ratios. The final libraries were purified using […]® gel extraction kit (28706X4, QIAGEN®) and sequenced with a 2×250 base pair paired-end protocol on the […]® MISEQ™ platform.
Microbiome data analysis. Sequencing data from paired-end reads were de-multiplexed using QIIME 2 (60). Merging of paired-end reads, dereplicating, and length filtering was performed using VSEARCH 2.17.1 (61). Following de-noising and chimera calling using the unoise3 command (62), unique sequences were taxonomically classified with mothur (63) using the Silva database (64) version 138. Weighted UniFrac distances (65) were determined using QIIME 2, visualized using principal coordinate analysis, and evaluated for statistical significance using permutational multivariate analysis of variance (PERMANOVA) testing. For differential abundance analysis, abundances of sequences belonging to taxonomical groups were included for analysis using the Mann-Whitney U test and adjusted for multiple comparisons using the method of Benjamini and Hochberg. Paired samples were analyzed using the Wilcoxon signed rank test with adjustment for multiple comparisons.
Quantification of fecal bacterial density. Genomic DNA was isolated from stool as described above. qPCR was performed as previously described (66). In brief, 16S rRNA gene sequences were amplified from total fecal DNA using the primers 926F (5′-[…]-3′, where K is a G or a T; SEQ ID NO:2) and 1062R (5′-[…]-3′, where R is an A or a G; SEQ ID NO:3). Real-time PCR were carried out in 96-well optical plates on QUANTSTUDIO™ Flex 6 RT PCR (APPLIED BIOSYSTEMS™) and KAPA SYBR® FAST Master Mix (Roche). The PCR conditions included one initial denaturing step of 10 min at 95° C. and 40 cycles of 95° C. for 20 sec and 60 °C for 1 min. Melting-curve analysis was performed after amplification. To determined bacterial density, a plasmid with a 16S rRNA gene of a murine Blautia isolate was generated in the pCR4 backbone and used as a standard.

[1] = tested on: murine BT GH2 β-galactosidase, GH33 sialidase, GH29 α-L-fucosidase; assay: Quantitative real-time PCR of GH2, GH29 and GH33 BT loci; assay type: cell-based, Bacteroides thetaiotaomicron; conditions: BT cultured with or without monosaccharides
Excerpt: (§1) To examine the effects of the presence of monosaccharides on mucin utilization by BT, BT was cultivated in bacterial media containing porcine gastric mucin, a panel of monosaccharides was subsequently added, including arabinose and xylose, and levels of remaining mucin were quantified using a colorimetric assay (FIG. 18C). In the absence of additional monosaccharides, BT readily metabolized porcine gastric mucin.
Quantitative real-time PCR analysis of BT loci. Total RNA was isolated from in vitro cultured BT as described above. The cDNA was synthesized using a High-Capacity cDNA Reverse Transcription Kit (4368814, APPLIED BIOSYSTEMS™). The mRNA levels of selected targets were quantified by qPCR using KAPA SYBR® FAST Master Mix (Roche) and specific probes (GH2, 5′-[…]-3′ (SEQ ID NO:4) for the forward primer, 5′-[…]-3′ (SEQ ID NO:5) for the reverse primer; GH29, 5′-[…]-3′ (SEQ ID NO:6) for the forward primer, 5′-[…]-3′ (SEQ ID NO:7) for the reverse primer; GH33, 5′-[…]-3′ (SEQ ID NO:8) for the forward primer, 5′-[…]-3′ (SEQ ID NO:9) for the reverse primer) and were normalized to BT specific probes (5′-[…]-3′ (SEQ ID NO:10) for the forward primer, 5′-[…]-3′ (SEQ ID NO:11) for the reverse primer) (75).

BT (MDA-JAX BT001) = assay: Mucin degradation assay of BT in porcine gastric mucin medium with monosaccharides; assay type: cell-based, Bacteroides thetaiotaomicron; conditions: monosaccharide added at 15 hours, further 3 hours
Experimental: as §1
Bacteria were cultured up to 48 hours at a starting concentration of 1×10^6 bacteria/ml in BYEM10 broth (pH 7.2) with and without 5 mg/ml of porcine gastric mucin (M1778, Sigma-Aldrich). Optical densities (OD600 nm) of bacterial cultures were measured with a BioTek EPOCH™ 2 plate reader.
Mucin degradation assay. Levels of mucin glycans in culture supernatants were determined by a PAS-based colorimetric assay as previously described (67) with minor modifications. Briefly, culture supernatants were centrifuged at 20,000 g, 4° C. for 10 minutes and collected. To perform mucin precipitation, 500 μL of culture supernatants were mixed with 1 mL of molecular grade ethanol and incubated at −30° C. overnight. Culture supernatants were centrifuged at 20,000 g, 4° C. for 10 minutes. Mucin-containing pellets were washed with 1 mL of molecular grade ethanol twice and resuspended in 500 μL of PBS. […] Absorbance was measured at 550 nm using a BioTek SYNERGY™ HTX plate reader.

[2] = tested on: mouse and human-derived BT; assay: Growth of BT in carbohydrate-poor media with monosaccharide; assay type: cell-based, Bacteroides thetaiotaomicron; conditions: OD600 nm up to 30 hours
Experimental: Allo-HSCT recipient mice were treated with meropenem as in FIG. 15A and with xylose from days 13 to 20 (FIG. 18F). […] Importantly, in vitro, growth of mouse and human-derived BT in carbohydrate-poor media was augmented by xylose (FIG. 23B). […] Bacteria were cultured up to 48 hours at a starting concentration of 1×10^6 bacteria/ml in BYEM10 broth (pH 7.2) with and without 5 mg/ml of porcine gastric mucin ([…], Sigma-Aldrich). Optical densities (OD600 nm) of bacterial cultures were measured with a BioTek EPOCHTM 2 plate reader.

For `O=C[C@H](O)[C@@H](O)[C@H](O)CO` [xylose, D-(+)-xylose], the colonic mucus thickness (colonic mucus layer) was “prevented thinning of the colonic mucus thickness”, the “relative abundances of BT” value (intestinal microbiota) was “not significantly different” and the “expression of GH2 β-galactosidase by murine BT” value [1] was “not significantly impacted”. The “expression of GH33 sialidase and GH29 α-L-fucosidase by murine BT” value [1] was “suppressed”, the “mucin utilization by BT” value (BT (MDA-JAX BT001)) was “significantly suppressed” and the “growth of BT in carbohydrate-poor media” value [2] was “augmented”.
